Assay results taken from patent US12281080B2, “Quinoline-based compounds and methods of inhibiting CDK8/19” (University of South Carolina, priority 2018, dated 2025).

Assays:
ACVR2B = ACVR2B (Homo sapiens (Human), UniProt Q13705); assay: KINOMEscan scanMAX; assay type: binding; details: 2000 nM; read-out: Percent Control
MV4-11 cells = assay: MV4-11-Luc proliferation assay (BLI); assay type: cell-based; details: Homo sapiens, MV4-11, 168 h; 7 days
Description: The anti-leukemic activity was evaluated with a MV4-11 assay. The population of MV4-11 cells, which depend on CDK8/19 for their proliferation, was made to express Luciferase and ZsGreen by lenvtiral infection with pHIV-Luc-ZsGreen, to enable leukemia growth analysis by bioluminescence imaging (BLI). The initial Luciferase-ZsGreen transduced cell population was sorted for ZsGreen positivity with fluorescence activated cell sorting. The MV4-11 assay was performed in 96-well plates by treating the MV4-11-Luc cells with testing compounds at different concentrations for 7 days, followed by BLI to quantify the effects of test articles on cell proliferation.

MET(M1250T) = MET(M1250T) (Homo sapiens (Human), UniProt P08581, M1250T); assay: KINOMEscan scanMAX; assay type: binding; details: 2000 nM; read-out: Percent Control
MET(M1250T), sequence (P08581 25-1390 M1250T): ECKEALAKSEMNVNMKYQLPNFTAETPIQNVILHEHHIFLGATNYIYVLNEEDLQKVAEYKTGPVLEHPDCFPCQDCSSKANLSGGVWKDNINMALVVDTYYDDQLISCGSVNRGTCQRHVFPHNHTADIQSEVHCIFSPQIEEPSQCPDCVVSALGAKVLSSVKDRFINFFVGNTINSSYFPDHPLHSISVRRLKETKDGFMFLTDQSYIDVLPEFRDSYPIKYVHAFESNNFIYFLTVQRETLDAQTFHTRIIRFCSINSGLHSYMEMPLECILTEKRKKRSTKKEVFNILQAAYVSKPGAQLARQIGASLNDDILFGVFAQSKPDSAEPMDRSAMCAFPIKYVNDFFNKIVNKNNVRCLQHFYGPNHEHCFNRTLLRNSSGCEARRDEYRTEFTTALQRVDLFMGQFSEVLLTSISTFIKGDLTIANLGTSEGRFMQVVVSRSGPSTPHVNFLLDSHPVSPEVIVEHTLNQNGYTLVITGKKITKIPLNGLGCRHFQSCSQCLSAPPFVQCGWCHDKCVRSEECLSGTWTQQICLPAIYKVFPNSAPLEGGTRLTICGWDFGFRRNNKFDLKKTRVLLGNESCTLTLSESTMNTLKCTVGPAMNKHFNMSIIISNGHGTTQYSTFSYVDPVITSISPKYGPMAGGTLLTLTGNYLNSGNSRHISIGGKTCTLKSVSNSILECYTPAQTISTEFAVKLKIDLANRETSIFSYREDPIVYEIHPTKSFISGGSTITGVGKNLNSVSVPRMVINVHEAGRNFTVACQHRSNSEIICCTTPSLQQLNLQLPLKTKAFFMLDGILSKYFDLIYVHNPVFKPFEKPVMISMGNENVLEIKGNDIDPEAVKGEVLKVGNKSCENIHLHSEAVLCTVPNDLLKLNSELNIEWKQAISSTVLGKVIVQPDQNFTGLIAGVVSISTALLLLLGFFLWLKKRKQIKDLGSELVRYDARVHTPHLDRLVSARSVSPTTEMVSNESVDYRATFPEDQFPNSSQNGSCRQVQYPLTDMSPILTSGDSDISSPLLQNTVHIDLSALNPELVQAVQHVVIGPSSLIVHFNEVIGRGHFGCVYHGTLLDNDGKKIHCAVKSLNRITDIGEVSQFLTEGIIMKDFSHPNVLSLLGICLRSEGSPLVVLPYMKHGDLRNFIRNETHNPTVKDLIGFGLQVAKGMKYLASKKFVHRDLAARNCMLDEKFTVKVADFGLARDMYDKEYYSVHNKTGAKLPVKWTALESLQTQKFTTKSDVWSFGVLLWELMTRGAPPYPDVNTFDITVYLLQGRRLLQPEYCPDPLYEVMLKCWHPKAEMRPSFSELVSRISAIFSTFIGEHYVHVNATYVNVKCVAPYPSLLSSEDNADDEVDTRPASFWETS

TRKB (NTRK2) = TRKB (NTRK2) (Homo sapiens (Human), UniProt Q16620); assay: KINOMEscan scanMAX; assay type: binding; details: 2000 nM; read-out: Percent Control
TRKB (NTRK2), sequence (Q16620 32-822): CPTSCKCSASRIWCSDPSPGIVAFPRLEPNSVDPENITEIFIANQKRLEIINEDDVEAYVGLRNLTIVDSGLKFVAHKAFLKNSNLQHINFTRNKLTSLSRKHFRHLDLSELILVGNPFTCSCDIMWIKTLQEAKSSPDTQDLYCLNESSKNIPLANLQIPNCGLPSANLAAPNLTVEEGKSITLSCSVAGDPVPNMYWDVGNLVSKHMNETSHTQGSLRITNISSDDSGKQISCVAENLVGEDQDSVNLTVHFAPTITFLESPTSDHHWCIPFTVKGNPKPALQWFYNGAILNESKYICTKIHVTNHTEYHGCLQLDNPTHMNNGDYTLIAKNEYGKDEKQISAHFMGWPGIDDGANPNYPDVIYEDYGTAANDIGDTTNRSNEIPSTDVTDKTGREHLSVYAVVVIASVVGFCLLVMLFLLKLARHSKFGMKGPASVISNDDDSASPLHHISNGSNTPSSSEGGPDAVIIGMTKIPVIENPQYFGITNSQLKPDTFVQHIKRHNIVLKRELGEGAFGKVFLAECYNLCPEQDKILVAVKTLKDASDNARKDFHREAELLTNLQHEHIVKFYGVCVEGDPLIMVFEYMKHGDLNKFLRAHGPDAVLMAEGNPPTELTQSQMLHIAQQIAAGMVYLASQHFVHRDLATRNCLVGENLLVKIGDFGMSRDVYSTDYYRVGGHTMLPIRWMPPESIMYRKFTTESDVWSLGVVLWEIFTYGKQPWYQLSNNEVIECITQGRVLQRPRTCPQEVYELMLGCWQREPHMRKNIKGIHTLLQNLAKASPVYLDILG

KIT(V559D, T670I) = KIT(V559D, T670I) (Homo sapiens (Human), UniProt P10721, T670I/V559D); assay: KINOMEscan scanMAX; assay type: binding; details: 2000 nM; read-out: Percent Control
KIT(V559D, T670I), sequence (P10721 26-976 V559D/T670I): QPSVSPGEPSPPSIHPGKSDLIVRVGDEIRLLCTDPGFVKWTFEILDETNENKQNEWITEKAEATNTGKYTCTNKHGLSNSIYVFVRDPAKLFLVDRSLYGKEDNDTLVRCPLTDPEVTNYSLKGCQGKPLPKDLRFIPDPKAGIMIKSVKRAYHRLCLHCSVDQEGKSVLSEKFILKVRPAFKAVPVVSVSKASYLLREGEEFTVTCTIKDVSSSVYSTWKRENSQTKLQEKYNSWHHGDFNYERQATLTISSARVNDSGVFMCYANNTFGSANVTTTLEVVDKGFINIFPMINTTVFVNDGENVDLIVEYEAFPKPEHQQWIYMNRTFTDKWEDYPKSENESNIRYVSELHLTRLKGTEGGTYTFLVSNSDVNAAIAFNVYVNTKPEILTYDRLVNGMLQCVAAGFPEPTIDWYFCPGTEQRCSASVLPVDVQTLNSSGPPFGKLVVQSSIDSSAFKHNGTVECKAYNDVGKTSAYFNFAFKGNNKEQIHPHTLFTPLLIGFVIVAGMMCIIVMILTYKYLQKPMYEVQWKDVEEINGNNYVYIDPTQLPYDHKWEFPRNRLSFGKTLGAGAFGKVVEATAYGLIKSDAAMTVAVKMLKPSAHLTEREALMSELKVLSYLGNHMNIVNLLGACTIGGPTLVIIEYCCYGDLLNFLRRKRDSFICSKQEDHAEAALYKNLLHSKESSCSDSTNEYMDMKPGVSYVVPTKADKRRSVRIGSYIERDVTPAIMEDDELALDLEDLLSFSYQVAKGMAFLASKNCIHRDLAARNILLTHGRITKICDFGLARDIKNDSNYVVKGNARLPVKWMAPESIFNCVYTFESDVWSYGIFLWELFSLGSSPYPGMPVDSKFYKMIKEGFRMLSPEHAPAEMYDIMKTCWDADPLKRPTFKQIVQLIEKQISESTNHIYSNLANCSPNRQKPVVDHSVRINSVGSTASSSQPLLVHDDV

PIK3CA(E545A) = PIK3CA(E545A) (Homo sapiens (Human), UniProt P42336, E545A); assay: KINOMEscan scanMAX; assay type: binding; details: 2000 nM; read-out: Percent Control
HIPK2 = HIPK2 (Homo sapiens (Human), UniProt Q9H2X6); assay: KINOMEscan scanMAX; assay type: binding; details: 2000 nM; read-out: Percent Control
[1] = target: ABL1(M351T)-phosphorylated (Homo sapiens (Human), UniProt P00519, M351T); assay: KINOMEscan scanMAX; assay type: binding; details: 2000 nM; read-out: Percent Control
LATS1 = LATS1 (Homo sapiens (Human), UniProt O95835); assay: KINOMEscan scanMAX; assay type: binding; details: 2000 nM; read-out: Percent Control
GRK7 = GRK7 (Homo sapiens (Human), UniProt Q8WTQ7); assay: KINOMEscan scanMAX; assay type: binding; details: 2000 nM; read-out: Percent Control
TAOK3 = TAOK3 (Homo sapiens (Human), UniProt Q9H2K8); assay: KINOMEscan scanMAX; assay type: binding; details: 2000 nM; read-out: Percent Control
[2] = target: ABL1(T315I)-phosphorylated (Homo sapiens (Human), UniProt P00519, T315I); assay: KINOMEscan scanMAX; assay type: binding; details: 2000 nM; read-out: Percent Control
TRKC (NTRK3) = TRKC (NTRK3) (Homo sapiens (Human), UniProt Q16288); assay: KINOMEscan scanMAX; assay type: binding; details: 2000 nM; read-out: Percent Control
ALK(L1196M) = ALK(L1196M) (Homo sapiens (Human), UniProt Q9UM73, L1196M); assay: KINOMEscan scanMAX; assay type: binding; details: 2000 nM; read-out: Percent Control
MAP3K3 = MAP3K3 (Homo sapiens (Human), UniProt Q99759); assay: KINOMEscan scanMAX; assay type: binding; details: 2000 nM; read-out: Percent Control
C4-2 xenografts = assay: PSA mRNA in C4-2 xenografts in mice; assay type: in vivo; details: 40 mg/kg orally daily for 4 days, male NcrNU mice
Description: CDK8/19 inhibition decreases the expression of certain androgen-receptor (AR) inducible genes including PSA, the most common marker of prostate cancer, and the growth of castration-refractory prostate cancers (CRPC). The in vivo effects of Senexin C on PSA expression by C4-2 cells were analyzed after treatment of male NcrNU mice bearing C4-2 xenografts (grouped based on tumor sizes) for 4 days at 40 mg/kg administered orally daily.

GSK3A = GSK3A (Homo sapiens (Human), UniProt P49840); assay: KINOMEscan scanMAX; assay type: binding; details: 2000 nM; read-out: Percent Control
PRKX = PRKX (Homo sapiens (Human), UniProt P51817); assay: KINOMEscan scanMAX; assay type: binding; details: 2000 nM; read-out: Percent Control
ERBB4 = ERBB4 (Homo sapiens (Human), UniProt Q15303); assay: KINOMEscan scanMAX; assay type: binding; details: 2000 nM; read-out: Percent Control
ERBB4, sequence (Q15303 26-1308): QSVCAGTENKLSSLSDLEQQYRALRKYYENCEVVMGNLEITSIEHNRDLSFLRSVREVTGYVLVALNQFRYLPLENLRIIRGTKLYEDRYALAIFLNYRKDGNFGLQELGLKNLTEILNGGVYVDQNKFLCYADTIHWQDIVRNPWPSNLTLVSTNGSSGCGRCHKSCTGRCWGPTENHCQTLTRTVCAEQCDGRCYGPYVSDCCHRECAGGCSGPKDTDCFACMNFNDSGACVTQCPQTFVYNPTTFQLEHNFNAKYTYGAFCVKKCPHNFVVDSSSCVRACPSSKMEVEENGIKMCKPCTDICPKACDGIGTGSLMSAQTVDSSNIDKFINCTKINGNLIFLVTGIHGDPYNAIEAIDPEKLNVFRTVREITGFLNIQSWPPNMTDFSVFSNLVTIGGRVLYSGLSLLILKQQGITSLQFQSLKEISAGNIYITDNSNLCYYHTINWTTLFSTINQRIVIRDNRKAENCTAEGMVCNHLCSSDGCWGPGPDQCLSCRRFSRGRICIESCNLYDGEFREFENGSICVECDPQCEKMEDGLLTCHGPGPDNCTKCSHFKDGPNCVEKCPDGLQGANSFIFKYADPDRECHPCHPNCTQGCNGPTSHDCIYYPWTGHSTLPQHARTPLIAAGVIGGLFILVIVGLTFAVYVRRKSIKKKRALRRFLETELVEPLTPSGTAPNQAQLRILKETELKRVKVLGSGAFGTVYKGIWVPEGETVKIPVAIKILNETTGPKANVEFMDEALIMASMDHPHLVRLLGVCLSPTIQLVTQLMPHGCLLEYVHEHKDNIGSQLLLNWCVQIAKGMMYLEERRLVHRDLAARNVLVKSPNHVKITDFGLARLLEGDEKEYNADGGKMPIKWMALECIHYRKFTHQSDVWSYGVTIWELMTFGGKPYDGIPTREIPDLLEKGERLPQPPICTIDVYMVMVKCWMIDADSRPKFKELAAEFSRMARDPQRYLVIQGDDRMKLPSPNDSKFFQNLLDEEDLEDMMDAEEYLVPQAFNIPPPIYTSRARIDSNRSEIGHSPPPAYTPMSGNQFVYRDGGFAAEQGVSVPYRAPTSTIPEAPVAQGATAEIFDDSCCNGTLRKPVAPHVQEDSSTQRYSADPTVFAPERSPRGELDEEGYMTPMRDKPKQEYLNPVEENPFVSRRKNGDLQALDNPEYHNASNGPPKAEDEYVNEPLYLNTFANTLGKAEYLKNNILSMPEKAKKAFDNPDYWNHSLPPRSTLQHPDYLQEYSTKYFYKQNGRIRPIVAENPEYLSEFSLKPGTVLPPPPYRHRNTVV

TNIK = TNIK (Homo sapiens (Human), UniProt Q9UKE5); assay: KINOMEscan scanMAX; assay type: binding; details: 2000 nM; read-out: Percent Control
CIT = CIT (Homo sapiens (Human), UniProt O14578); assay: KINOMEscan scanMAX; assay type: binding; details: 2000 nM; read-out: Percent Control
PRKR (EIF2AK2) = PRKR (EIF2AK2) (Homo sapiens (Human), UniProt P19525); assay: KINOMEscan scanMAX; assay type: binding; details: 2000 nM; read-out: Percent Control
ERBB3 = ERBB3 (Homo sapiens (Human), UniProt P21860); assay: KINOMEscan scanMAX; assay type: binding; details: 2000 nM; read-out: Percent Control
CDK8 = CDK8 (Homo sapiens (Human), UniProt P49336); assay: KINOMEscan scanMAX; assay type: binding; details: 2000 nM; read-out: Percent Control
EGFR(S752-1759del) = EGFR(S752-1759del) (Homo sapiens (Human), UniProt P00533, DEL752-759); assay: KINOMEscan scanMAX; assay type: binding; details: 2000 nM; read-out: Percent Control
EGFR(S752-1759del), sequence (P00533 other isoform, or with tags, fused parts or gaps del 1-668/del 752-759/del 1012-1210 limits assumed): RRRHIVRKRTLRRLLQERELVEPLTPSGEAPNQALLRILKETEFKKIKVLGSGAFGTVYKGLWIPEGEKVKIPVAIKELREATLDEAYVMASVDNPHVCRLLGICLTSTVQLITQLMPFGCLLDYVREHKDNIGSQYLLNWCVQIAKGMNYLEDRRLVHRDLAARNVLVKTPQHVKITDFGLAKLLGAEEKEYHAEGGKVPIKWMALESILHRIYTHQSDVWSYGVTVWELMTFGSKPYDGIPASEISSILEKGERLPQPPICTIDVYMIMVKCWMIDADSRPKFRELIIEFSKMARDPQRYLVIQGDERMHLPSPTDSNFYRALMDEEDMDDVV

FGFR3 = FGFR3 (Homo sapiens (Human), UniProt P22607); assay: KINOMEscan scanMAX; assay type: binding; details: 2000 nM; read-out: Percent Control
PRKD3 = PRKD3 (Homo sapiens (Human), UniProt O94806); assay: KINOMEscan scanMAX; assay type: binding; details: 2000 nM; read-out: Percent Control
SRC = SRC (Homo sapiens (Human), UniProt P12931); assay: KINOMEscan scanMAX; assay type: binding; details: 2000 nM; read-out: Percent Control
PIK3C2B = PIK3C2B (Homo sapiens (Human), UniProt O00750); assay: KINOMEscan scanMAX; assay type: binding; details: 2000 nM; read-out: Percent Control
[3] = target: JAK1(JH1domain-catalytic) (Homo sapiens (Human), UniProt P23458); assay: KINOMEscan scanMAX; assay type: binding; details: 2000 nM; read-out: Percent Control
[4] = target: RSK1(Kin.Dom.2-C-terminal) (RPS6KA1) (Homo sapiens (Human), UniProt Q15418); assay: KINOMEscan scanMAX; assay type: binding; details: 2000 nM; read-out: Percent Control
RSK1(Kin.Dom.2-C-terminal) (RPS6KA1), sequence (Q15418 418-675): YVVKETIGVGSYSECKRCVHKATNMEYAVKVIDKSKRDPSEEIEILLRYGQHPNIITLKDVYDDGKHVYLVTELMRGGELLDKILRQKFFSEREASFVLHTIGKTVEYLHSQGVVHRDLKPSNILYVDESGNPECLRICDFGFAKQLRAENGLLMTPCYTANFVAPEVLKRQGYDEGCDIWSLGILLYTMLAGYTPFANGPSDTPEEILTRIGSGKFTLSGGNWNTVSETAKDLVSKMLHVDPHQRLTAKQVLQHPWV

STK39 = STK39 (Homo sapiens (Human), UniProt Q9UEW8); assay: KINOMEscan scanMAX; assay type: binding; details: 2000 nM; read-out: Percent Control
SRMS = SRMS (Homo sapiens (Human), UniProt Q9H3Y6); assay: KINOMEscan scanMAX; assay type: binding; details: 2000 nM; read-out: Percent Control
EPHA6 = EPHA6 (Homo sapiens (Human), UniProt Q9UF33); assay: KINOMEscan scanMAX; assay type: binding; details: 2000 nM; read-out: Percent Control

**Q.** `CN1CCN(C(=O)c2ccc3cc(CCNc4ccnc5ccc(C#N)cc45)ccc3c2)CC1` [compound 6148, 4-((2-(6-(4-methylpiperazine-1-carbonyl)naphthalen-2-yl)ethyl)amino)quinoline-6-carbonitrile] was tested. Which remaining binding at 2 µM (ACVR2B) did it give?
**A.** 90%

**Q.** And the IC50 (MV4-11 cells)?
**A.** 117 nM

**Q.** And the remaining binding at 2 µM (MET(M1250T))?
**A.** 88%

**Q.** And the remaining binding at 2 µM (TRKB (NTRK2))?
**A.** 57%

**Q.** What about the remaining binding at 2 µM (KIT(V559D, T670I)) of the same compound?
**A.** 90%

**Q.** And the remaining binding at 2 µM (PIK3CA(E545A))?
**A.** 73%

**Q.** And the remaining binding at 2 µM (HIPK2)?
**A.** 67%

**Q.** And the remaining binding at 2 µM [1]?
**A.** 80%

**Q.** What about the remaining binding at 2 µM (LATS1) of the same compound?
**A.** 76%

**Q.** And the remaining binding at 2 µM (GRK7)?
**A.** 87%

**Q.** And the remaining binding at 2 µM (TAOK3)?
**A.** 79%

**Q.** And the remaining binding at 2 µM [2]?
**A.** 76%

**Q.** What about the remaining binding at 2 µM (TRKC (NTRK3)) of the same compound?
**A.** 69%

**Q.** And the remaining binding at 2 µM (ALK(L1196M))?
**A.** 92%

**Q.** And the remaining binding at 2 µM (MAP3K3)?
**A.** 83%

**Q.** What about the “PSA mRNA levels in the tumor” value (C4-2 xenografts) of the same compound?
**A.** strongly decreased

**Q.** And the remaining binding at 2 µM (GSK3A)?
**A.** 94%

**Q.** And the remaining binding at 2 µM (PRKX)?
**A.** 100%

**Q.** And the remaining binding at 2 µM (ERBB4)?
**A.** 95%

**Q.** What about the remaining binding at 2 µM (TNIK) of the same compound?
**A.** 89%

**Q.** What about the remaining binding at 2 µM (CIT) of the same compound?
**A.** 48%

**Q.** What about the remaining binding at 2 µM (PRKR (EIF2AK2)) of the same compound?
**A.** 88%

**Q.** And the remaining binding at 2 µM (ERBB3)?
**A.** 76%

**Q.** And the remaining binding at 2 µM (CDK8)?
**A.** 1.3%

**Q.** And the remaining binding at 2 µM (EGFR(S752-1759del))?
**A.** 99%

**Q.** What about the remaining binding at 2 µM (FGFR3) of the same compound?
**A.** 100%

**Q.** And the remaining binding at 2 µM (PRKD3)?
**A.** 100%

**Q.** What about the remaining binding at 2 µM (SRC) of the same compound?
**A.** 92%

**Q.** What about the remaining binding at 2 µM (PIK3C2B) of the same compound?
**A.** 80%

**Q.** What about the remaining binding at 2 µM [3] of the same compound?
**A.** 94%

**Q.** And the remaining binding at 2 µM [4]?
**A.** 97%

**Q.** What about the remaining binding at 2 µM (STK39) of the same compound?
**A.** 44%

**Q.** What about the remaining binding at 2 µM (SRMS) of the same compound?
**A.** 75%

**Q.** And the remaining binding at 2 µM (EPHA6)?
**A.** 79%
